In patent publication US20170042849A1, “COMPOSITION FOR BRAIN IMPROVEMENT” (N.V. Nutricia, priority 2014, published 2017):

Key:
C3H/HeOuJ mice [1] = experiment: Social interaction test in cow's milk allergy model mice and unsensitized mice; format: in vivo
Procedure: (§1) Pathogen-free, male C3H/HeOuJ mice (4 weeks old, Charles River Laboratories) mice were bred and raised on a cow's milk protein-free diet (Special Diet Services, Witham, UK) and housed on a 12 h light-dark cycle with access to food and water ad libitum. All animal procedures were conducted in accordance with the guidelines of the Dutch Committee of Animal Experiments. The mice were sensitized orally with 0.5 mL homogenized whey protein (40 mg/mL PBS) and cholera toxin (CT, 20 μg/mL PBS, Quadratech Diagnostics) as an adjuvant; sham-sensitized mice received CT alone. Mice were orally boosted once a week for 5 consecutive weeks. One week after the last sensitization, mice were challenged orally with 0.5 mL whey (100 mg/mL PBS). The mice were fed a control diet, or a diet supplemented with glutamine (5 wt %). At the end, the mice were subjected to social interaction and spatial memory tests. Cow's milk allergy is associated with disturbed social interaction and impaired spatial memory, and thus suited to study the effects of dietary intervention there. […] By using video tracking software (EthoVision 3.1.16, Noldus), an interaction zone around the cage was digitally determined. Time spent in the interaction zone as well as frequency of entering the interaction zone over the selected time period was measured. […]

C3H/HeOuJ mice [2] = experiment: T maze spontaneous alternation spatial memory performance test; format: in vivo; settings: CMA sensitized mice
Procedure: as §1, with “The percentage of alternation (number of turns” for “By using video tracking software (EthoVision 3.1.16, Noldus), an interaction zone around the cage was digitally determined. Time spent”, “each goal arm) and total trial duration are recorded. This test is used to quantify cognitive deficits in transgenic strains” for “the interaction zone as well as frequency”, “mice and evaluate novel chemical entities for their effects on cognition.” for “entering the interaction zone over the selected time period was measured.”

NC(=O)CC[C@H](N)C(=O)O [glutamine, L-glutamine]
Time spent in interaction zone (C3H/HeOuJ mice [1]; CMA sensitized mice, diet supplemented with glutamine (5 wt %), mean +/- s.e.): 117 +/− 20.8 (n = 12) sec
Time spent in the interaction zone (C3H/HeOuJ mice [1]; unsensitized mice fed the Gln diet): 174 ± 19.1 s
% Alternation in spatial memory test (C3H/HeOuJ mice [2]; diet supplemented with glutamine (5 wt %), mean, s.e.): 66.7 +/− 6.4 (n = 12) %
Reduced alternation in the T-maze test vs control CMA-mice, in words (C3H/HeOuJ mice [2]; diet with supplementation of Gln): markedly improved
